Each block holds one molecule with its values, some of them ahead of it.
Experiments:
hLBAT = molecular target: T1, hLBAT (Homo sapiens, UniProt Q14973); assay: LBAT (h/m) assay: 3H-taurocholic acid uptake in human LBAT-overexpressing cells; type: cell-based; details: 0.3 μM 3H-taurocholic acid + 7.5 μM cold taurocholic acid, 20 minutes at 37° C.
T1 construct: expressed in transfected cells; kept under Geneticin selection
T1 sequence (Q14973 1-349): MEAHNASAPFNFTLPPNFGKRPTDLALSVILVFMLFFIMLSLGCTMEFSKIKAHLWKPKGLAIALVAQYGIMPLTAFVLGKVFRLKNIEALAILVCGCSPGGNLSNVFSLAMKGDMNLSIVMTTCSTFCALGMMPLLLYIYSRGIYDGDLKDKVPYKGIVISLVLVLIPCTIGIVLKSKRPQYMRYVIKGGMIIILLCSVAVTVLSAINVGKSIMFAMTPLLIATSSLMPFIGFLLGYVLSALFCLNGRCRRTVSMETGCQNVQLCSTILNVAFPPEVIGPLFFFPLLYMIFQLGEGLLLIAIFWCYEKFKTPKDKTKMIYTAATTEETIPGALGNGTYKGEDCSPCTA
Description: LBAT (h/m) Assay Protocol
20,000 cells (Human or Mouse LBAT-overexpressing cells) were seeded in 96-wells plate (Corning CLS3809) in 100 μL MEM-alpha medium (Gibco 12571-063) supplemented with 10% FBS (Gibco 10438026) containing Geneticin (Gibco 10131-027) (1 mg/mL) and incubated at 37° C. in 5% CO2 for 24 hours. After incubation, media was decanted from the wells and cells were washed two times with 300 μL of basal MEM-alpha medium (FBS-free). After decanting basal MEM-alpha medium each time, plates were tapped against paper towel to ensure maximum removal of residual media. For human LBAT, incubation mix was prepared by adding test inhibitor dilutions (3-fold serial dilution in DMSO (Sigma D2650), 10 points) in MEM-alpha (without FBS) containing 0.3 μM 3H-taurocholic acid (ARC ART-1368) and 7.5 μM cold taurocholic acid (Sigma T4009) (maintaining 0.2% final DMSO concentration). For mouse LBAT, incubation mix was prepared by adding test inhibitor dilutions (3-fold serial dilution in DMSO, 10 points) in MEM-alpha (without FBS) containing 0.3 μM 3H-taurocholic acid and 25 μM cold taurocholic acid maintaining 0.2% final DMSO concentration). 50 μL of incubation mix containing test inhibitors was then added to the wells (in duplicate) and the plates were incubated for 20 minutes in a CO2 incubator at 37° C. After incubation, the reaction was stopped by keeping the plates on ice water mix for 2-3 minutes and then the incubation mix was aspirated completely from the wells. The wells were washed two times with 250 μL of chilled unlabelled 1 mM taurocholic acid dissolved in HEPES (Gibco 15630080)-buffered (10 mM) HBSS (Gibco 14175079) (pH 7.4). The plates were tapped against a paper towel after every wash to ensure maximum removal of blocking buffer.
100 μL of MicroScint-20 (PerkinElmer 6013621) was added to the wells and kept overnight at RT before reading the plates in TopCount NXT™ Microplate Scintillation and Luminescence Counter from PerkinElmer under 3H Test protocol (set at 120 seconds reading time per well, with normal plate orientation).
(§1) Preparation of Test Compound Dilutions
(§2) All test compounds were provided in powder form at RT. 10 mM DMSO stocks of the test compounds were prepared, aliquoted and stored at −20° C. From the 10 mM DMSO stock of the compounds, a 3-fold serial dilution in DMSO was prepared to get a total of 10 dilutions of the test compounds. 0.5 μL of this dilution in DMSO was added to 250 μL of FBS-free basal media containing 3H-taurocholic acid and cold taurocholic acid to prepare the incubation mixture.

hIBAT = molecular target: T2, hIBAT (Homo sapiens, UniProt Q12908); assay: IBAT (h/m) assay: 3H-taurocholic acid uptake in human IBAT-overexpressing cells; type: cell-based; details: 0.25 μM 3H-taurocholic acid + 5 μM cold taurocholic acid, 20 minutes at 37° C., highest test concentration 10 μM
T2 construct: expressed in transfected cells; kept under Puromycin selection
T2 sequence (Q12908 1-348): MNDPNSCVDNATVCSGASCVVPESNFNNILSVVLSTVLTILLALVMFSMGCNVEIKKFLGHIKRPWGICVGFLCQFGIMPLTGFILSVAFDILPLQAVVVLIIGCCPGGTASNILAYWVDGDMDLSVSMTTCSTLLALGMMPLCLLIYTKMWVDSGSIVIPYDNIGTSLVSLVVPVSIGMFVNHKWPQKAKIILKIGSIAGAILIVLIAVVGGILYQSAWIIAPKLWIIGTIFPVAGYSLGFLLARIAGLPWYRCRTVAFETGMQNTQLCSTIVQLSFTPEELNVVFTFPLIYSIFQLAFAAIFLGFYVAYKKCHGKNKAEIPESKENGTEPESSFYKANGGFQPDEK
Description: IBAT (h/m) Assay Protocol
10,000 cells (Human or Mouse IBAT-overexpressing cells) were seeded in 96-wells plate (Corning CLS3809) in 200 μL MEM-alpha medium (Gibco 12571-063) supplemented with 10% FBS (Gibco 10438026) containing Puromycin (Gibco A1113803) (10 μg/mL) and incubated at 37° C. in 5% CO2 for 48 hours. After incubation, media was decanted from the wells and cells were washed two times with 300 μL of basal MEM-alpha medium (FBS-free). After decanting basal MEM-alpha medium each time, plates were tapped against paper towel to ensure maximum removal of residual media. Test inhibitor dilutions (highest test concentration being 10 μM, 3-fold serial dilution, 10 points) prepared in DMSO (Sigma D2650) were added in incubation mix (maintaining 0.2% final DMSO concentration) containing 0.25 μM 3H-taurocholic acid (ARC ART-1368) and 5 μM of cold taurocholic acid (Sigma T4009). 50 μL of incubation mix containing test inhibitors was then added to the wells (in duplicate) and the plates were incubated for 20 minutes in a CO2 incubator at 37° C. After incubation, the reaction was stopped by keeping the plates on ice water mix for 2-3 minutes and then the incubation mix was aspirated completely from the wells. The wells were washed two times with 250 μL of chilled unlabelled 1 mM taurocholic acid dissolved in HEPES (Gibco 15630080)-buffered (10 mM) HBSS (Gibco 14175079) (pH 7.4). The plates were tapped against a paper towel after every wash to ensure maximum removal of blocking buffer.
100 μL of MicroScint-20 (PerkinElmer 6013621) was added to the wells and kept overnight at RT before reading the plates in TopCount NXT™ Microplate Scintillation and Luminescence Counter from PerkinElmer under 3H Test protocol (set at 120 seconds reading time per well).
as §1, §2

SMILES: CCCCC1(C)CN(c2ccccc2)c2cc(SC)c(CSCC(=O)O)cc2S(=O)(=O)C1 (racemic) [Example 4, 2-(((3-butyl-3-methyl-7-(methylthio)-1,1-dioxido-5-phenyl-2,3,4,5-tetrahydro-1,5-benzothiazepin-8-yl)methyl)thio)acetic acid]
IC50 (hIBAT): 0.8 nM | IC50 (hLBAT): 7260 nM

SMILES: CCCCC1(CC)CN(c2ccccc2)c2cc(SC)c(CSCC(=O)O)cc2S(=O)(=O)N1 (racemic) [Example 9, 2-(((3-butyl-3-ethyl-7-(methylthio)-1,1-dioxido-5-phenyl-2,3,4,5-tetrahydro-1,2,5-benzothiadiazepin-8-yl)methyl)thio)acetic acid]
IC50 (hIBAT): 0.5 nM | IC50 (hLBAT): > 3330 nM

SMILES: CCCCC1(CC)CN(c2ccccc2)c2cc(OC)c(CSCC(=O)O)cc2S(=O)(=O)C1 (racemic) [Example 13, 2-(((3-Butyl-3-ethyl-7-methoxy-1,1-dioxido-5-phenyl-2,3,4,5-tetrahydro-1,5-benzothiazepin-8-yl)methyl)thio)acetic acid]
IC50 (hIBAT): 2.3 nM

SMILES: CCCCC1(CC)CN(c2ccc(F)cc2)c2cc(SC)c(CSC(C)(C)C(=O)O)cc2S(=O)(=O)C1 (racemic) [Example 15, 2-(((3-Butyl-3-ethyl-5-(4-fluorophenyl)-7-(methylthio)-1,1-dioxido-2,3,4,5-tetrahydro-1,5-benzothiazepin-8-yl)methyl)thio)-2-methylpropanoic acid]
IC50 (hIBAT): 60 nM | IC50 (hLBAT): 176 nM

SMILES: CCCCC1(C)CN(c2ccccc2)c2cc(SC)c(CSC(C)(C)C(=O)O)cc2S(=O)(=O)C1 (racemic) [Example 18, 2-(((3-Butyl-3-methyl-7-(methylthio)-1,1-dioxido-5-phenyl-2,3,4,5-tetrahydro-1,5-benzothiazepin-8-yl)methyl)thio)-2-methylpropanoic acid]
IC50 (hIBAT): 404 nM | IC50 (hLBAT): 135 nM

SMILES: CCCCC1(CC)CN(c2ccccc2)c2cc(OC)c(CSC(C)(C)C(=O)O)cc2S(=O)(=O)C1 (racemic) [Example 25, 2-(((3-butyl-3-ethyl-7-methoxy-1,1-dioxido-5-phenyl-2,3,4,5-tetrahydro-1,5-benzothiazepin-8-yl)methyl)thio)-2-methylpropanoic acid]
IC50 (hIBAT): 217 nM | IC50 (hLBAT): 135 nM

SMILES: CCCCC1(CC)CN(c2ccc(F)cc2)c2cc(OC)c(CSC(C)(C)C(=O)O)cc2S(=O)(=O)C1 (racemic) [Example 33, 2-(((3-butyl-3-ethyl-5-(4-fluorophenyl)-7-methoxy-1,1-dioxido-2,3,4,5-tetrahydro-1,5-benzothiazepin-8-yl)methyl)thio)-2-methylpropanoic acid]
IC50 (hIBAT): 295 nM | IC50 (hLBAT): 150 nM

SMILES: CCCCC1CN(c2ccccc2)c2cc(OC)c(CSCC(=O)O)cc2S(=O)(=O)N1C (racemic) [Example 35, 2-(((3-butyl-7-methoxy-2-methyl-1,1-dioxido-5-phenyl-2,3,4,5-tetrahydro-1,2,5-benzothiadiazepin-8-yl)methyl)thio)acetic acid]
IC50 (hIBAT): 3110 nM | IC50 (hLBAT): 362 nM

SMILES: CCCCC1(CC)CN(c2ccc(F)cc2)c2cc(OC)c(CSCC(=O)O)cc2S(=O)(=O)C1 (racemic) [Example 39, 2-(((3-butyl-3-ethyl-5-(4-fluorophenyl)-7-methoxy-1,1-dioxido-2,3,4,5-tetrahydro-1,5-benzothiazepin-8-yl)methyl)thio)acetic acid]
IC50 (hIBAT): 2.5 nM | IC50 (hLBAT): > 3330 nM

SMILES: CCCCC1(CC)CN(c2ccccc2)c2cc(OC)c(CSCC(=O)O)cc2S(=O)(=O)N1 (single isomer, unassigned) [45, enantiomer 2]
IC50 (hIBAT): 3.2 nM

Results, then the molecule that gave them:

IC50 (hLBAT): 3820 nM
SMILES: CCCCC1(CC)CN(c2ccccc2)c2cc(SC)c(CSCC(=O)O)cc2S(=O)(=O)C1 (racemic) [Example 1, 2-(((3-butyl-3-ethyl-7-(methylthio)-1,1-dioxido-5-phenyl-2,3,4,5-tetrahydro-1,5-benzothiazepin-8-yl)methyl)thio)acetic acid]

IC50 (hIBAT): 0.6 nM | IC50 (hLBAT): > 2200 nM
SMILES: CCCCC1(CC)CN(c2ccc(F)cc2)c2cc(SC)c(CSCC(=O)O)cc2S(=O)(=O)C1 (racemic) [Example 6, 2-(((3-butyl-3-ethyl-5-(4-fluorophenyl)-7-(methylthio)-1,1-dioxido-2,3,4,5-tetrahydro-1,5-benzothiazepin-8-yl)methyl)thio)acetic acid]

IC50 (hIBAT): 70 nM | IC50 (hLBAT): 34 nM
SMILES: CCCCC1CN(c2ccccc2)c2cc(SC)c(CSCC(=O)O)cc2S(=O)(=O)N1C (racemic) [Example 11, 2-(((3-butyl-2-methyl-7-(methylthio)-1,1-dioxido-5-phenyl-2,3,4,5-tetrahydro-1,2,5-benzothiadiazepin-8-yl)methyl)thio)acetic acid]

IC50 (hIBAT): 14 nM | IC50 (hLBAT): > 10000 nM
SMILES: CCCCC1(C)CN(c2ccccc2)c2cc(OC)c(CSCC(=O)O)cc2S(=O)(=O)C1 (racemic) [Example 27, 2-(((3-butyl-7-methoxy-3-methyl-1,1-dioxido-5-phenyl-2,3,4,5-tetrahydro-1,5-benzothiazepin-8-yl)methyl)thio)acetic acid]

IC50 (hIBAT): 558 nM | IC50 (hLBAT): 107 nM
SMILES: CCCCC1CN(c2ccc(F)cc2)c2cc(OC)c(CSCC(=O)O)cc2S(=O)(=O)N1C (racemic) [Example 29, 2-(((3-butyl-5-(4-fluorophenyl)-7-methoxy-2-methyl-1,1-dioxido-2,3,4,5-tetrahydro-1,2,5-benzothiadiazepin-8-yl)methyl)thio)acetic acid]

IC50 (hIBAT): > 10000 nM | IC50 (hLBAT): 21 nM
SMILES: CCCCC1CN(c2ccccc2)c2cc(OC)c(CSC(C)(C)C(=O)O)cc2S(=O)(=O)N1C (racemic) [Example 37, 2-(((3-butyl-7-methoxy-2-methyl-1,1-dioxido-5-phenyl-2,3,4,5-tetrahydro-1,2,5-benzothiadiazepin-8-yl)methyl)thio)-2-methylpropanoic acid]

IC50 (hIBAT): 1.7 nM
SMILES: CCCCC1(CC)CN(c2ccccc2)c2cc(SC)c(CSCC(=O)O)cc2S(=O)(=O)N1 (single isomer, unassigned) [10, enantiomer 2]
